From patent US7105551B2, “Thiazole derivatives for treating PPAR related disorders” (SmithKline Beecham Corporation, priority 2000, dated 2006)

Columns and labels:
hPPAR α = biological target: T1, hPPAR α (Homo sapiens, UniProt Q07869); assay: Transient transfection (transactivation) assay in CV-1 cells, hPPAR alpha; format: cell-based; details: GAL4 chimeric receptor, SPAP reporter
T1 construct: expressed in transfected cells; host or cells: CV-1 cells
T1 sequence (Q07869 239-466 limits assumed): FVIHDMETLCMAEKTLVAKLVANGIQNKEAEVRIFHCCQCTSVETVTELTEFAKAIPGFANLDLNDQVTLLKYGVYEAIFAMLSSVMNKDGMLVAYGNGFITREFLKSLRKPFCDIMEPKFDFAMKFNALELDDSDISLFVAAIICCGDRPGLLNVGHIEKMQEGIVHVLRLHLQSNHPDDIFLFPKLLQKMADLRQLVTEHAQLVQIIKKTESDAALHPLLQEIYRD
Description: (§1) Compounds were screened for functional potency in transient transfection assays in CV-1 cells for their ability to activate the PPAR subtypes (transactivation assay). A previously established chimeric receptor system was utilized to allow comparison of the relative transcriptional activity of the receptor subtypes on the same target gene and to prevent endogenous receptor activation from complicating the interpretation of results. […] The ligand binding domains for murine and human PPAR alpha, PPAR gamma, and PPAR delta were each fused to the yeast transcription factor GAL4 DNA binding domain. CV-1 cells were transiently transfected with expression vectors for the respective PPAR chimera along with a reporter construct containing five copies of the GAL4 DNA binding site driving expression of secreted placental alkalin phosphatase (SPAP) and beta-galactosidase. After 16 h, the medium was exchanged to DME medium supplemented with 10% delipidated fetal calf serum and th test compound at the appropriate concentration. After an additional 24 h, cell extracts were prepared and assayed for alkaline phosphatase and β-galactosidase activity. […] The positive control in the hPPAR alpha assays was 2-methyl-2-[4-{[(4-methyl-2-[4-trifluoromethylphenyl]-thiazol-5-yl-carbonyl)amino]methyl}-phenoxy]propionic acid. The positive control for PPAR delta assays was 2-{2-methyl-4-[({4-methyl-2-{trifluoromethyl)phenyl]-1,3-thiazol-5-yl}methyl)sulfanyl]phenoxy}acetic acid.

hPPAR δ = biological target: T2, hPPAR δ (Homo sapiens, UniProt Q03181); assay: Transient transfection (transactivation) assay in CV-1 cells, hPPAR delta; format: cell-based; details: GAL4 chimeric receptor, SPAP reporter
T2 construct: expressed in transfected cells; host or cells: CV-1 cells
T2 sequence (Q03181 211-439 limits assumed): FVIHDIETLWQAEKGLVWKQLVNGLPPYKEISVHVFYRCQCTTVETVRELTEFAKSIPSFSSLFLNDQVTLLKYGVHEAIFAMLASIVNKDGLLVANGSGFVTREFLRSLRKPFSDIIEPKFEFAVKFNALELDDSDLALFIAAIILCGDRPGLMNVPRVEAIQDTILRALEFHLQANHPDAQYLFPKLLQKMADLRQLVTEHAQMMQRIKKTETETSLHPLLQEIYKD
Description: as §1

hPPAR γ = biological target: T3, hPPAR γ (Homo sapiens, UniProt P37231); assay: Transient transfection (transactivation) assay in CV-1 cells, hPPAR gamma; format: cell-based; details: GAL4 chimeric receptor, SPAP reporter
T3 construct: expressed in transfected cells; host or cells: CV-1 cells
T3 sequence (P37231 238-503 limits assumed): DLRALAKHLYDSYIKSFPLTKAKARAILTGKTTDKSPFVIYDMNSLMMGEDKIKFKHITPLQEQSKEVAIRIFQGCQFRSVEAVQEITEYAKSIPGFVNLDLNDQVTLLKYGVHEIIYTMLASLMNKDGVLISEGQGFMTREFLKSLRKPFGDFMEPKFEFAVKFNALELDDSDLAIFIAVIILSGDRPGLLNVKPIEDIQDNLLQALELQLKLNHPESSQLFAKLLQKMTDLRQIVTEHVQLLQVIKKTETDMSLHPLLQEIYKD
Description: as §1

Structure (SMILES) | EC50 (hPPAR α) | EC50 (hPPAR δ) | EC50 (hPPAR γ) | melting point
CC[C@@H](Oc1ccc(OC(C)(C)C(=O)O)c(C)c1)c1sc(-c2ccc(C(F)(F)F)cc2)nc1C [Example 29, (R)-2-methyl-2-(2-methyl-4-{1-[4-methyl-2-(4-trifluoromethyl-phenyl)thiazol-5-yl]propoxy}-phenoxy)-propionic acid] | 9 nM | 1.5 nM | 240 nM | 
CC[C@H](Oc1ccc(OC(C)(C)C(=O)O)c(C)c1)c1sc(-c2ccc(C(F)(F)F)cc2)nc1C [Example 31, (S)-2-methyl-2-(2-methyl-4-{1-[4-methyl-2-(4-trifluoromethyl-phenyl)-thiazol-5-yl]propoxy}-phenoxy)-propionic acid] | 5 nM | 1.7 nM | 660 nM | 
Cc1cc(O[C@H](C)c2sc(-c3ccc(C(F)(F)F)cc3)nc2C)ccc1OC(C)(C)C(=O)O [Example 11, (R)-2-methyl-2-(2-methyl-4-{1-[4-methyl-2-(4-trifluoromethylphenyl)-thiazol-5-yl]ethoxy}-phenoxy)-propionic acid] | 10 nM | 0.7 nM | 300 nM | 
Cc1cc(OC(C)c2sc(-c3ccc(C(F)(F)F)cc3F)nc2C)ccc1OC(C)(C)C(=O)O (stereo not shown) [Example 19, 2-(4-{1-[2-(2-fluoro-4-trifluoromethyl-phenyl)-4-methyl-thiazol-5-yl]-ethoxy}-2-methyl-phenoxy)-2-methyl-propionic acid] |  |  |  | 133 °C
Cc1cc(O[C@@H](C)c2sc(-c3ccc(C(F)(F)F)cc3)nc2C)ccc1OC(C)(C)C(=O)O [Example 9, (S)-2-methyl-2-(2-methyl-4-{1-[4-methyl-2-(4-trifluoromethylphenyl)-thiazol-5-yl]ethoxy}-phenoxy)-propionic acid] | 16 nM | 3 nM | 7000 nM | 
